Laboratory results from ChEMBL document CHEMBL3785044, “Phenobarbital metabolism in adults and in newborn infants” (Acta Paediatr Scand, 1978).

Legend:
[1] = Half life in newborn infants at 11.4 mg/kg, im by gas chromatography; format: ADME, organism-based; settings: human, in vivo
Homo sapiens [2] = test: Apparent drug level in subject at 4.33 mg/kg, po measured at time zero by gas chromatography; format: ADME, organism-based; settings: in vivo
[3] = Disposition rate constant in newborn infants at 11.4 mg/kg, im by gas chromatography; format: ADME, organism-based; settings: human, in vivo
Homo sapiens [4] = test: Disposition rate constant in newborn infants (2 patients) at 12 mg/kg, im by gas chromatography; format: ADME, organism-based; settings: in vivo
[5] = Half life in subject at 5.21 mg/kg, po by gas chromatography; format: ADME, organism-based; settings: female, human, in vivo
[6] = Drug excretion in subject assessed as phenobarbital, p-hydroxyphenobarbital and conjugated p-hydroxyphenobarbital level in urine at 5.21 mg/kg, po measured during 4 week period by gas chromatography; format: ADME, organism-based; settings: human, in vivo, 672 h
[7] = Disposition rate constant in subject at 5.21 mg/kg, po by gas chromatography; format: ADME, organism-based; settings: female, human, in vivo
Homo sapiens [8] = test: Apparent volume of distribution in male subject at 4.33 mg/kg, po by gas chromatography; format: ADME, organism-based; settings: in vivo
[9] = Half life in subject at 4.33 mg/kg, po by gas chromatography; format: ADME, organism-based; settings: male, human, in vivo
Homo sapiens [10] = test: Apparent volume of distribution in newborn infants (2 patients) at 12 mg/kg, im by gas chromatography; format: ADME, organism-based; settings: in vivo
[11] = Disposition rate constant in newborn infants at 20.6 mg/kg, po by gas chromatography; format: ADME, organism-based; settings: human, in vivo
Homo sapiens [12] = test: Apparent volume of distribution in subject at 5.21 mg/kg, po by gas chromatography; format: ADME, organism-based; settings: in vivo
Homo sapiens [13] = test: Apparent drug level in subject at 5.21 mg/kg, po measured at time zero by gas chromatography; format: ADME, organism-based; settings: in vivo
Homo sapiens [14] = test: Apparent drug level in newborn infants at 20.6 mg/kg, po measured at time zero by gas chromatography; format: ADME, organism-based; settings: in vivo
[15] = Drug excretion in newborn infants (4 patients) assessed as unchanged compound level in urine at measured during first 8 days by gas chromatography; format: ADME; settings: human, read-out: Drug excretion
Homo sapiens [16] = test: Apparent volume of distribution in newborn infants at 11.4 mg/kg, im by gas chromatography; format: ADME, organism-based; settings: in vivo
[17] = Half life in newborn infants at 20.6 mg/kg, po by gas chromatography; format: ADME, organism-based; settings: human, in vivo
Homo sapiens [18] = test: Apparent volume of distribution in newborn infants at 20.6 mg/kg, po by gas chromatography; format: ADME, organism-based; settings: in vivo
[19] = Drug excretion in subject assessed as phenobarbital, p-hydroxyphenobarbital and conjugated p-hydroxyphenobarbital level in urine at 5.21 mg/kg, po measured during first 2 weeks by gas chromatography; format: ADME, organism-based; settings: human, in vivo, 336 h
[20] = Drug excretion in newborn infants (4 patients) assessed as p-hydroxy phenobarbital level in urine at measured during first 8 days by gas chromatography; format: ADME, tissue-based; settings: human, in vivo, 192 h
[21] = Drug excretion in subject assessed as phenobarbital, p-hydroxyphenobarbital and conjugated p-hydroxyphenobarbital level in urine at 4.33 mg/kg, po measured during first 2 weeks by gas chromatography; format: ADME, organism-based; settings: human, in vivo, 336 h
[22] = Disposition rate constant in subject at 4.33 mg/kg, po by gas chromatography; format: ADME, organism-based; settings: male, human, in vivo
Homo sapiens [23] = test: Half life in newborn infants (2 patients) at 12 mg/kg, im by gas chromatography; format: ADME, organism-based; settings: in vivo
[24] = Drug excretion in po dosed adult (2 subjects) assessed as unchanged compound level in urine at measured during first 8 days by gas chromatography; format: ADME, organism-based; settings: human, read-out: Drug excretion
Homo sapiens [25] = test: Apparent drug level in newborn infants at 11.4 mg/kg, po measured at time zero by gas chromatography; format: ADME, organism-based; settings: in vivo
Homo sapiens [26] = test: Apparent drug level in newborn infants (2 patients) at 12 mg/kg, im measured at time zero by gas chromatography; format: ADME, organism-based; settings: in vivo
[27] = Plasma concentration in subject at 5.21 mg/kg, po measured after 17 days by gas chromatography; format: ADME, organism-based; settings: female, human

Compound: CCC1(c2ccccc2)C(=O)NC(=O)NC1=O [PHENOBARBITAL]
- half-life [1]: 119 h
- Drug uptake (Homo sapiens [2]): 9.3 µg/mL
- k el [3]: 1.61e-06 s⁻¹
- K (Homo sapiens [4]): 0.004 h⁻¹
- half-life [5]: 117 h
- Drug excretion [6]: 75%
- k el [7]: 1.64e-06 s⁻¹
- Vd(app) (Homo sapiens [8]): 0.47 L/kg
- half-life [9]: 84 h
- Vd(app) (Homo sapiens [10]): 0.59 L/kg
- k el [11]: 2.33e-06 s⁻¹
- Vd(app) (Homo sapiens [12]): 0.52 L/kg
- Drug uptake (Homo sapiens [13]): 10 µg/mL
- Drug uptake (Homo sapiens [14]): 21 µg/mL
- dose excreted at 192 h [15]: 17%
- Vd(app) (Homo sapiens [16]): 0.99 L/kg
- half-life [17]: 83 h
- Vd(app) (Homo sapiens [18]): 0.98 L/kg
- Drug excretion [19]: 65%
- Drug excretion [20]: 10%
- Drug excretion [21]: 35%
- k el [22]: 2.28e-06 s⁻¹
- t1/2 (Homo sapiens [23]): 61 h
- dose excreted at 192 h [24]: 16%
- Drug uptake (Homo sapiens [25]): 17.8 µg/mL
- Drug uptake (Homo sapiens [26]): 18.1 µg/mL
- concentration at 408 h [27]: 500 ng/mL
